Target: DGKα (Homo sapiens, UniProt P23743)
Assay: Human DGKα kinase activity inhibition assay (ADP-Glo)
Type: biochemical
Conditions: in vitro human DGKα kinase activity inhibition assay
Method: Human DGKα inhibitory activity of compounds of the present invention was quantified employing the human DGKα kinase activity assay as described in the following paragraphs. In essence, the enzyme activity was measured by quantification of the adenosine-di-phosphate (ADP) generated as a co-product of the enzyme reaction via the “ADP-Glo™ Kinase Assay” kit from the company Promega. This detection system works as follows: In a first step the ATP not consumed in the kinase reaction is quantitatively converted to cAMP employing an adenylate cyclase (“ADP-Glo-reagent”), then the adenylate cyclase is stopped and the ADP generated in the kinase reaction converted to ATP, which subsequently generates in a luciferase-based reaction a glow-luminescence signal (“Kinase Detection Reagent”). C-terminally FLAG-tagged, recombinant full-length human DGKα (expressed in baculovirus infected insect cells, purified using anti-Flag pulldown and size exclusion chromatography as described below, DGKα_hu_1) was used as enzyme. As substrate for the kinase 1,2-dioleoyl-sn-glycerol, reconstituted in octyl-β-D-glucopyranoside micelles, was used. For the preparation of the micelles, 1 volume of a 16.1 mM solution of 1,2-dioleoyl-sn-glycerol (Avanti, Cat. #O8001-25G) in chloroform was slowly evaporated using a nitrogen stream. Subsequently, 22.55 volumes of a 510 mM solution of octyl-β-D-glucopyranoside (Sigma-Aldrich, Cat. #O8001-10G) in 50 mM MOPS buffer (pH 7.4) were added, and the mixture was sonicated in an ultrasonic bath for 20 s. Then 35 volumes of 50 mM MOPS buffer (pH 7.4) were added to yield a solution of 0.28 mM 1,2 dioleoyl-sn-glycerol and 200 mM octyl-β-D-glucopyranoside, which was aliquoted, flash-frozen in liquid nitrogen, and stored at −20° C. until use. For each experiment, a fresh aliquot was quickly thawed and diluted 24-fold with aqueous assay buffer (described below) containing 95.7 μM adenosine triphosphate (Promega) to yield a 1.67-fold concentrated substrate solution. For the assay 50 nl of a 100-fold concentrated solution of the test compound in dimethyl sulfoxide (DMSO, Sigma) was pipetted into either a white 1536-well or a white low-volume 384-well microtiter plate (both Greiner Bio-One, Frickenhausen, Germany). […] The concentration of DGK a was adjusted depending of the activity of the enzyme lot and was chosen appropriate to have the assay in the linear range, a typical concentration is about 0.1 nM. The reaction was stopped by the addition of 2.5 μl of “ADP-Glo-reagent” (1 to 1.5 diluted with water) and the resulting mixture was incubated at 22° C. for 1 h to convert the ATP not consumed in the kinase reaction completely to cAMP. […] The amount of emitted light was taken as a measure for the amount of ADP generated and thereby for the activity of the DGKα.

Sequence of DGKα (P23743 with tags, fused parts or gaps): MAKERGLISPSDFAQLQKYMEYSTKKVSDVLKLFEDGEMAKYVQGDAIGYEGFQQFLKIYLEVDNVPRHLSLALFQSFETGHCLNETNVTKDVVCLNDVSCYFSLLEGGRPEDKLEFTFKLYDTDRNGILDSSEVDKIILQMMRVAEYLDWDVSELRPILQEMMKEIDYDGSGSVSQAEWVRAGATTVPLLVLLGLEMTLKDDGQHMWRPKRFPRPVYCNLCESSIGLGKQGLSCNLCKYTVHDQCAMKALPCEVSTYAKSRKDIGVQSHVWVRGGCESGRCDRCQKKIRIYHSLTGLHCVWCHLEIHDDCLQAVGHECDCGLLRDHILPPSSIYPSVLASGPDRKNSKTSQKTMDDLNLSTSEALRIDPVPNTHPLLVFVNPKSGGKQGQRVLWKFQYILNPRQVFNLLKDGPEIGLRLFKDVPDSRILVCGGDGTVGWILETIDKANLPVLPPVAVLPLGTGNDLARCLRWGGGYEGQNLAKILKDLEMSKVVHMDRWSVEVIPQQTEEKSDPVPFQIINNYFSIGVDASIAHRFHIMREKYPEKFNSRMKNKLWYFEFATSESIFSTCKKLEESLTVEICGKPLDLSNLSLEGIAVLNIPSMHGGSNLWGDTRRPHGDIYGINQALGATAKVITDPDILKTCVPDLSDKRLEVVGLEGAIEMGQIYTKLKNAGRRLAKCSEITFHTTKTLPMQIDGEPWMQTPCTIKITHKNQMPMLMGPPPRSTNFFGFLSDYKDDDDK

IC50 | Compound
14 nM | Cn1c(=O)c(C#N)c(N2CCC(Oc3ccc(C(F)(F)F)cc3)CC2)c2ccccc21 [Example 13, 1-methyl-2-oxo-4-{4-[4-(trifluoromethyl)phenoxy]piperidin-1-yl}-1,2-dihydroquinoline-3-carbonitrile]
339 nM | Cn1c(=O)c(C#N)c(N2CCC(Oc3ccc(S(C)(=O)=O)cc3)CC2)c2ccccc21 [Example 43, 4-{4-[4-(methanesulfonyl)phenoxy]piperidin-1-yl}-1-methyl-2-oxo-1,2-dihydroquinoline-3-carbonitrile]
12 nM | Cn1c(=O)c(C(N)=O)c(N2CCC(Oc3ccc(OC(F)(F)F)cc3)CC2)c2ccc(N3CCCC3=O)cc21 [Example 96, 1-methyl-2-oxo-7-(2-oxopyrrolidin-1-yl)-4-{4-[4-(trifluoromethoxy)phenoxy]piperidin-1-yl}-1,2-dihydroquinoline-3-carboxamide]
45 nM | Cn1c(=O)c(C#N)c(N2CCC(Oc3ccc(-n4cncn4)cc3)CC2)c2ccccc21 [Example 17, 1-methyl-2-oxo-4-{4-[4-(1H-1,2,4-triazol-1-yl)phenoxy]piperidin-1-yl}-1,2-dihydroquinoline-3-carbonitrile]
9 nM | Cn1c(=O)c(C#N)c(N2CCC(Oc3ccccc3C#N)CC2)c2ccccc21 [Example 34, 4-[4-(2-cyanophenoxy)piperidin-1-yl]-1-methyl-2-oxo-1,2-dihydroquinoline-3-carbonitrile]
32 nM | Cn1c(=O)c(C#N)c(N2CCC(Oc3ccc(C(F)(F)F)cc3)CC2)c2ccc(N3CCCC3=O)cc21 [Example 86, 1-methyl-2-oxo-7-(2-oxopyrrolidin-1-yl)-4-{4-[4-(trifluoromethyl)phenoxy]piperidin-1-yl}-1,2-dihydroquinoline-3-carbonitrile]
6 nM | COc1ccccc1COC1CCN(c2c(C#N)c(=O)n(C)c3ccccc23)CC1 [Example 117, 4-{4-[(2-methoxyphenyl)methoxy]piperidin-1-yl}-1-methyl-2-oxo-1,2-dihydroquinoline-3-carbonitrile]
55 nM | Cn1c(=O)c(C#N)c(N2CCC(Oc3ccc(N4CCCC4=O)cc3)CC2)c2ccccc21 [Example 18, 1-methyl-2-oxo-4-{4-[4-(2-oxopyrrolidin-1-yl)phenoxy]piperidin-1-yl}-1,2-dihydroquinoline-3-carbonitrile]
15 nM | Cn1c(=O)c(C#N)c(N2CCC(Cc3ccc(C#N)cc3)CC2)c2ccccc21 [Example 95, 4-{4-[(4-cyanophenyl)methyl]piperidin-1-yl}-1-methyl-2-oxo-1,2-dihydroquinoline-3-carbonitrile]
51 nM | Cn1c(=O)c(C#N)c(N2CCC(COc3ccccc3Cl)CC2)c2ccccc21 [Example 120, 4-{4-[(2-chlorophenoxy)methyl]piperidin-1-yl}-1-methyl-2-oxo-1,2-dihydroquinoline-3-carbonitrile]
164 nM | Cn1c(=O)c(C#N)c(N2CCC(Oc3ccccc3C(F)(F)F)CC2)c2ccccc21 [Example 36, 1-methyl-2-oxo-4-{4-[2-(trifluoromethyl)phenoxy]piperidin-1-yl}-1,2-dihydroquinoline-3-carbonitrile]
3.8 nM | Cn1c(=O)c(C(N)=O)c(N2CCC(Oc3ccc(OC(F)F)cc3)CC2)c2ccccc21 [Example 52, 4-{4-[4-(difluoromethoxy)phenoxy]piperidin-1-yl}-1-methyl-2-oxo-1,2-dihydroquinoline-3-carboxamide]
6.4 nM | Cn1c(=O)c(C#N)c(N2CCC(COc3ccc(Cl)cc3)CC2)c2ccccc21 [Example 116, 4-{4-[(4-chlorophenoxy)methyl]piperidin-1-yl}-1-methyl-2-oxo-1,2-dihydroquinoline-3-carbonitrile]
3 nM | COCCOc1ccc2c(N3CCC(Oc4ccc(OC(F)(F)F)cc4)CC3)c(C#N)c(=O)n(C)c2c1 [Example 81, 7-(2-methoxyethoxy)-1-methyl-2-oxo-4-{4-[4-(trifluoromethoxy)phenoxy]piperidin-1-yl}-1,2-dihydroquinoline-3-carbonitrile]
9.9 nM | Cn1c(=O)c(C#N)c(N2CCC(Oc3ccc(F)cc3)CC2)c2ccc(Br)cc21 [Example 56, 7-bromo-4-[4-(4-fluorophenoxy)piperidin-1-yl]-1-methyl-2-oxo-1,2-dihydroquinoline-3-carbonitrile]
11 nM | COc1ccccc1OC1CCN(c2c(C#N)c(=O)n(C)c3ccccc23)CC1 [Example 11, 4-[4-(2-methoxyphenoxy)piperidin-1-yl]-1-methyl-2-oxo-1,2-dihydroquinoline-3-carbonitrile]
22 nM | Cn1c(=O)c(C#N)c(N2CCC(Oc3cccc(OC(F)(F)F)c3)CC2)c2ccc(Br)cc21 [Example 61, 7-bromo-1-methyl-2-oxo-4-{4-[3-(trifluoromethoxy)phenoxy]piperidin-1-yl}-1,2-dihydroquinoline-3-carbonitrile]
173 nM | Cn1c(=O)c(C#N)c(N2CCC(C)(Oc3ccc(N)cc3)CC2)c2ccccc21 [Example 41, 4-[4-(4-aminophenoxy)-4-methylpiperidin-1-yl]-1-methyl-2-oxo-1,2-dihydroquinoline-3-carbonitrile]
7.4 nM | Cn1c(=O)c(C#N)c(N2CCCC(Oc3ccc(OC(F)(F)F)cc3)CC2)c2ccccc21 (single isomer, unassigned; enantiomer 1) [Example 101, 1-methyl-2-oxo-4-{4-[4-(trifluoromethoxy)phenoxy]azepan-1-yl}-1,2-dihydroquinoline-3-carbonitrile, enantiomer 1]
28 nM | COc1ccccc1CC1CCN(c2c(C#N)c(=O)n(C)c3ccccc23)CC1 [Example 94, 4-{4-[(2-methoxyphenyl)methyl]piperidin-1-yl}-1-methyl-2-oxo-1,2-dihydroquinoline-3-carbonitrile]
31 nM | CN(C)c1ccc(OC2CCN(c3c(C#N)c(=O)n(C)c4ccccc34)CC2)cc1 [Example 45, 4-{4-[4-(dimethylamino)phenoxy]piperidin-1-yl}-1-methyl-2-oxo-1,2-dihydroquinoline-3-carbonitrile]
13 nM | COc1ccccc1OC1CCN(c2c(C#N)c(=O)n(C)c3ccc(C)cc23)CC1 [Example 154, 4-[4-(2-methoxyphenoxy)piperidin-1-yl]-1,6-dimethyl-2-oxo-1,2-dihydroquinoline-3-carbonitrile]
12 nM | CCOC(=O)c1ccc(OC2CCN(c3c(C#N)c(=O)n(C)c4ccccc34)CC2)cc1 [Example 12, ethyl 4-{[1-(3-cyano-1-methyl-2-oxo-1,2-dihydroquinolin-4-yl)piperidin-4-yl]oxy}benzoate]
6.4 nM | Cc1ccc2c(N3CCC(Oc4ccc(OC(F)(F)F)cc4)CC3)c(C#N)c(=O)n(C)c2c1 [Example 67, 1,7-dimethyl-2-oxo-4-{4-[4-(trifluoromethoxy)phenoxy]piperidin-1-yl}-1,2-dihydroquinoline-3-carbonitrile]
4.8 nM | Cn1c(=O)c(C#N)c(N2CCC(OCc3ccccc3F)CC2)c2ccccc21 [Example 111, 4-{4-[(2-fluorophenyl)methoxy]piperidin-1-yl}-1-methyl-2-oxo-1,2-dihydroquinoline-3-carbonitrile]
31 nM | Cn1c(=O)c(C#N)c(N2CCC(Oc3ccc(C#N)cc3)CC2)c2ccccc21 [Example 32, 4-[4-(4-cyanophenoxy)piperidin-1-yl]-1-methyl-2-oxo-1,2-dihydroquinoline-3-carbonitrile]
29 nM | Cn1c(=O)c(C#N)c(N2CCC(Sc3ccccc3)CC2)c2ccc(C3CC3)cc21 [Example 68, 7-cyclopropyl-1-methyl-2-oxo-4-[4-(phenylsulfanyl)piperidin-1-yl]-1,2-dihydroquinoline-3-carbonitrile]
4.2 nM | Cc1ccc(OC2CCN(c3c(C#N)c(=O)n(C)c4ccccc34)CC2)cc1 [Example 1, 1-methyl-4-[4-(4-methylphenoxy)piperidin-1-yl]-2-oxo-1,2-dihydroquinoline-3-carbonitrile]
1.7 nM | Cn1c(=O)c(C(N)=O)c(N2CCC(Oc3cccc(Cl)c3)CC2)c2ccccc21 [Example 49, 4-[4-(3-chlorophenoxy)piperidin-1-yl]-1-methyl-2-oxo-1,2-dihydroquinoline-3-carboxamide]
27 nM | Cn1c(=O)c(C#N)c(N2CCC(C)(Oc3ccc(Br)cc3)CC2)c2ccccc21 [Example 42, 4-[4-(4-bromophenoxy)-4-methylpiperidin-1-yl]-1-methyl-2-oxo-1,2-dihydroquinoline-3-carbonitrile]
